Data published in US7674819B2 (Warner-Lambert Company LLC, priority 2005, dated 2010).
Numbering of substitutions follows the chain as printed. Where two headings read alike, the source gives them in different places.

Experiments:
hAR = target: T1, hAR (Homo sapiens, UniProt P10275); assay: Competitive binding of 3H-DHT to baculovirus/Sf9 generated hAR extracts; conditions: one hour at 4° C., mean of multiple tests
T1 sequence (P10275 1-920): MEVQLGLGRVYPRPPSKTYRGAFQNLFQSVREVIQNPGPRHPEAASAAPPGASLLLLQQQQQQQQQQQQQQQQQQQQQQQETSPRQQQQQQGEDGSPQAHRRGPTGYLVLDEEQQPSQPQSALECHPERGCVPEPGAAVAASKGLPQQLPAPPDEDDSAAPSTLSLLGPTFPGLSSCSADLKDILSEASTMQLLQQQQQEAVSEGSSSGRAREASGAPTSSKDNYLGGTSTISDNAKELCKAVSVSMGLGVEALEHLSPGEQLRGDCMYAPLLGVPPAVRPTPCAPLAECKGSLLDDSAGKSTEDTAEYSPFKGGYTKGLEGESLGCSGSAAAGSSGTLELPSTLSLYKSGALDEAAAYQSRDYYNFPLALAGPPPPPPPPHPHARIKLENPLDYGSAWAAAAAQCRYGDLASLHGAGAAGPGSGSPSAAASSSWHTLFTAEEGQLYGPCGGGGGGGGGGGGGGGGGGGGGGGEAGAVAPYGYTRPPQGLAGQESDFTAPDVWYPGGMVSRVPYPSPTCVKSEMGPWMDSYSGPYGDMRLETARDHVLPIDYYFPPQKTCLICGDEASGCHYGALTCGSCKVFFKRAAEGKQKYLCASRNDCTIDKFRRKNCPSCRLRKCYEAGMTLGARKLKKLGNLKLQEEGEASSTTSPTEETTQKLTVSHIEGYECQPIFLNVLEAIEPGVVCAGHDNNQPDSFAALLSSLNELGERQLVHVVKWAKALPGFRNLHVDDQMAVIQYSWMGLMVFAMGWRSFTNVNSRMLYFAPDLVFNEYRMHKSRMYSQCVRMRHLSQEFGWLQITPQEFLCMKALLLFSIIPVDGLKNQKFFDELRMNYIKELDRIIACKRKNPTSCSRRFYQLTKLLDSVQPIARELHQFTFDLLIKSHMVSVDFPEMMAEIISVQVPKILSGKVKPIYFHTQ
Method: The description below describes how the assay was carried out.
Competitive binding analysis was performed on baculovirus/Sf9 generated hAR extracts in the presence or absence of different concentrations of test agent and a fixed concentration of ^3H-dihydrotestosterone (^3H-DHT) as tracer. This binding assay method is a modification of a protocol previously described (Liao S., et. al. J. Steroid Biochem. 20:11-17 1984). Briefly, progressively decreasing concentrations of compounds are incubated in the presence of hAR extract (Chang et al. P.N.A.S. Vol. 89, pp. […], 1992), hydroxylapatite, and 1 nM^3H-DHT for one hour at 4° C. Subsequently, the binding reactions are washed three times to completely remove excess unbound ^3H-DHT. hAR bound ^3H-DHT levels are determined in the presence of compounds (i.e. competitive binding) and compared to levels bound when no competitor is present (i.e. maximum binding). Compound binding affinity to the hAR is expressed as the concentration of compound at which one half of the maximum binding is inhibited.

androgen receptor = target: T2, androgen receptor (Homo sapiens, UniProt P10275); assay: AR Antagonist Cell Assay (MDA-MB453-MMTV clone 54-19, luciferase reporter); type: cell-based; conditions: inhibition of induction by DHT (final concentration at 100 μM), 17 hr, compound 0.32-1000 nM, mean of multiple tests
T2 sequence (P10275 1-920 Q868H): T1 sequence (P10275 1-920) with Q868H
Method: The compounds ability to antagonize the effects of androgen on the androgen receptor were determined in a whole cell assay as described immediately below.
Experimental Procedure for AR Antagonist Cell Assay
This cell line is a stable transfected cell line with MDA-MB453 cell background (a human breast tumor cell line expressing androgen receptor). A MMTV minimal promoter containing ARE was first cloned in front of a firefly luciferase reporter gene. Then the cascade was cloned into transfection vector pUV120puro. […] Puromycin resistant stable cell line was selected.
Cell Culture Media and Reagents:
Plating medium: DMEM (phenol red free), 10% charcoal treated HyClone serum, 1% L-glutamine
Assay medium: DMEM (phenol red free), 1% charcoal treated HyClone serum, 1% L-glutamine, 1% penicillin/streptomycin
Cells are maintained in culture medium, splitting cells when they reach 80-90% confluence
To test compounds, 10,000 cells/well are plated to opaque 96 cell culture plate in 100 ul/well plating medium, culture for overnight at 37° C. in cell culture incubator
Add 10 ul/well freshly prepared DHT (final concentration at […]) to each well, incubate at 37° C. for 17 hr (overnight)
Add 50 ul/well 3× luciferase buffer, incubate at room temperature for 5 minutes, then count on Luminometer
The results are reported as the mean of multiple tests described below (the numbers of tests are indicated in the footnote). N.D. denotes that the compound was not tested.

[1] = concentration at which one half of maximum binding of 1 nM 3H-DHT to hAR is inhibited, read-out: IC50
[2] = IC50, concentration at which one half of maximum binding of 1 nM 3H-DHT to hAR is inhibited

| Compound | IC50 (hAR; [1]) [nM] | IC50 (androgen receptor; read-out: IC50) [nM] | IC50 (hAR; [2]) [nM] | IC50 (androgen receptor) [nM] | IC50 (hAR; concentration at which one half of maximum binding of 1 nM 3H-DHT to hAR is inhibited) [nM] |
| --- | --- | --- | --- | --- | --- |
| C[C@@H](c1ccccc1)N1CC(C)(C)C(Oc2ccc(C#N)c(C(F)(F)F)c2)C1=O (mixture of isomers) [Example 69, (+)-4-[4,4-Dimethyl-2-oxo-1-(1-phenyl-ethyl)-pyrrolidin-3-yloxy]-2-trifluoromethyl-benzonitrile] | 258 | 331 |  |  |  |
| COC(=O)c1cccc(CN2CC(C)(C)C(Oc3ccc(C#N)c(C(F)(F)F)c3)C2=O)c1 (racemic) [Example 25, (±)-3-[3-(4-Cyano-3-trifluoromethyl-phenoxy)-4,4-dimethyl-2-oxo-pyrrolidin-1-ylmethyl]-benzoic acid methyl ester] |  | 107 | 48 |  |  |
| C[C@@H](c1ccc(F)cc1)N1CC(C)(C)[C@@H](Oc2ccc(C#N)c(C(F)(F)F)c2)C1=O (racemic) [Example 71, (±)-4-{1-[1-(4-Fluoro-phenyl)-ethyl]-4,4-dimethyl-2-oxo-pyrrolidin-3-yloxy}-2-trifluoromethyl-benzonitrile] | 104 |  |  | 6 |  |
| CCCC(C)N1CC(C)(C)C(Oc2ccc(C#N)c(C(F)(F)F)c2)C1=O (racemic) [Example 72, (±)-4-[4,4-Dimethyl-1-(1-methyl-butyl)-2-oxo-pyrrolidin-3-yloxy]-2-trifluoromethyl-benzonitrile] |  |  | 203 | 7 |  |
| CC1(C)CN(Cc2ccc(O)cc2)C(=O)C1Oc1ccc(C#N)c(C(F)(F)F)c1 (single isomer, unassigned) [Example 9, 4-[1-(4-Hydroxy-benzyl)-4,4-dimethyl-2-oxo-pyrrolidin-3-yloxy]-2-trifluoromethyl-benzonitrile] |  |  | 18 | 46 |  |
| CC1(C)CN(S(C)(=O)=O)C(=O)C1Oc1ccc(C#N)c(C(F)(F)F)c1 (single isomer, unassigned) [Example 100, 4-(1-Methanesulfonyl-4,4-dimethyl-2-oxo-pyrrolidin-3-yloxy)-2-trifluoromethyl-benzonitrile] |  |  | 12 | 12 |  |
| CSCN1CC(C)(C)C(Oc2ccc(C#N)c(C(F)(F)F)c2)C1=O (single isomer, unassigned) [Example 100B, 4-(4,4-Dimethyl-1-methylsulfanylmethyl-2-oxo-pyrrolidin-3-yloxy)-2-trifluoromethyl-benzonitrile] |  |  | 76 | 24 |  |
| CC1(C)CN(S(=O)(=O)C2CC2)C(=O)C1Oc1ccc(C#N)c(C(F)(F)F)c1 (single isomer, unassigned) [Example 100C, 4-(1-Cyclopropanesulfonyl-4,4-dimethyl-2-oxo-pyrrolidin-3-yloxy)-2-trifluoromethyl-benzonitrile] |  |  | 59 | 38 |  |
| CC1(C)CN(Cc2ccccc2)C(=O)C1Oc1ccc(C#N)c(C(F)(F)F)c1 (single isomer, unassigned; (+)) [Example 6, (+)-4-(1-Benzyl-4,4-dimethyl-2-oxo-pyrrolidin-3-yloxy)-2-trifluoromethyl-benzonitrile] |  |  | 31 | 136 |  |
| CC1(C)CN(Cc2cccc(O)c2)C(=O)C1Oc1ccc(C#N)c(C(F)(F)F)c1 (single isomer, unassigned; (+)) [Example 14, (+)-4-[1-(3-Hydroxy-benzyl)-4,4-dimethyl-2-oxo-pyrrolidin-3-yloxy]-2-trifluoromethyl-benzonitrile] |  |  | 23 | 99 |  |
| COc1cccc(C(C)N2CC(C)(C)C(Oc3ccc(C#N)c(C(F)(F)F)c3)C2=O)c1 (single isomer, unassigned; (+)) [Example 23, (+)-4-{1-[1-(3-Methoxy-phenyl)-ethyl]-4,4-dimethyl-2-oxo-pyrrolidin-3-yloxy}-2-trifluoromethyl-benzonitrile] |  |  | 64 | 58 |  |
| CC1(C)CN(S(C)(=O)=O)C(=O)C1Oc1ccc(C#N)c(C(F)(F)F)c1 (single isomer, unassigned; (+)) [Example 96, (+)-4-(1-Methanesulfonyl-4,4-dimethyl-2-oxo-pyrrolidin-3-yloxy)-2-trifluoromethyl-benzonitrile] |  |  |  | 36 | 12 |
| CCCC(=O)N1CC(C)(C)C(Oc2ccc(C#N)c(C(F)(F)F)c2)C1=O (single isomer, unassigned; (+)) [Example 103, (+)-4-(1-Butyryl-4,4-dimethyl-2-oxo-pyrrolidin-3-yloxy)-2-trifluoromethyl-benzonitrile (single enantiomer)] | 130 | 125 |  |  |  |
| CC1(C)CN(C(=O)c2ccccc2)C(=O)C1Oc1ccc(C#N)c(C(F)(F)F)c1 (single isomer, unassigned; (+)) [Example 105, (+)-4-(1-Benzoyl-4,4-dimethyl-2-oxo-pyrrolidin-3-yloxy)-2-trifluoromethyl-benzonitrile] | 252 |  |  | 22 |  |
| CC1(C)CN(Cc2ccccc2)C(=O)C1Oc1ccc(C#N)c(C(F)(F)F)c1 (centres unmarked) [Example 5, 4-(1-Benzyl-4,4-dimethyl-2-oxo-pyrrolidin-3-yloxy)2-trifluoromethyl-benzonitrile] |  |  | 32 | 12 |  |
| CC1(C)CN(Cc2ccc(O)cc2)C(=O)C1Oc1ccc(C#N)c(C(F)(F)F)c1 (centres unmarked) [Example 8, 4-[1-(4-Hydroxy-benzyl)-4,4-dimethyl-2-oxo-pyrrolidin-3-yloxy]-2-trifluoromethyl-benzonitrile] |  |  | 17 | 33 |  |
